Experimental data as given in ChEMBL document CHEMBL1136660, “Novel 5-cyclopropyl-1,4-benzodiazepin-2-ones as potent and selective I(Ks)-blocking class III antiarrhythmic agents” (Bioorg Med Chem Lett, 2003).

System: not listed separately
Assay: Percent metabolized in an in vitro human liver microsomal incubation assay after 60 min
Format: ADME, Microsome
Conditions: liver microsomes, read-out: Metabolism

| metabolised at 1 h | Structure (SMILES) |
| --- | --- |
| ~15% | O=C(Cc1ccc(C(F)(F)F)cc1C(F)(F)F)NC1N=C(C2CC2)c2ccccc2N(CC(F)(F)F)C1=O (single isomer, unassigned; (+)) |
| 70% | CC(C)C1=NC(NC(=O)Cc2ccc(C(F)(F)F)cc2C(F)(F)F)C(=O)N(CC(F)(F)F)c2ccccc21 (configuration not stated) |

System: Canis familiaris
Assay: QTc interval of compound was measured in chloralose anesthetized dogs(for its Class III activity in vivo) at dose of 0.001 mg/kg (iv); units are msec/square root of sec
Format: functional, Canis lupus familiaris
Conditions: not given

| Structure (SMILES) | QTc Interval |
| --- | --- |
| CC[C@@H](C)N1C(=O)C(NC(=O)Cc2ccc(C(F)(F)F)cc2C(F)(F)F)N=C(C2CC2)c2ccccc21 (single isomer, unassigned; (-)) | 384 ms s-1 |

System: Canis familiaris
Assay: QTc interval of compound was measured in chloralose anesthetized dogs(for its Class III activity in vivo) at dose of 0.01 mg/kg (iv); units are msec/square root of sec
Format: functional, Canis lupus familiaris
Conditions: not given

| Structure (SMILES) | QTc Interval |
| --- | --- |
| CC[C@@H](C)N1C(=O)C(NC(=O)Cc2ccc(C(F)(F)F)cc2C(F)(F)F)N=C(C2CC2)c2ccccc21 (single isomer, unassigned; (-)) | 392 ms s-1 |

System: Canis familiaris
Assay: QTc interval of compound was measured in chloralose anesthetized dogs(for its Class III activity in vivo) at dose of 0.1 mg/kg (iv); units are msec/square root of sec
Format: functional, Canis lupus familiaris
Conditions: not given

| Structure (SMILES) | QTc Interval |
| --- | --- |
| CC[C@@H](C)N1C(=O)C(NC(=O)Cc2ccc(C(F)(F)F)cc2C(F)(F)F)N=C(C2CC2)c2ccccc21 (single isomer, unassigned; (-)) | 454 ms s-1 |

System: Canis familiaris
Assay: Ventricular relative Refractory period (msec) of compound was measured in chloralose anesthetized dogs (for its Class III activity in vivo) at dose of 0.01 mg/kg (iv)
Format: functional, Canis lupus familiaris, Heart
Conditions: not given

| Structure (SMILES) | Ventricular relative refractory period |
| --- | --- |
| CC[C@@H](C)N1C(=O)C(NC(=O)Cc2ccc(C(F)(F)F)cc2C(F)(F)F)N=C(C2CC2)c2ccccc21 (single isomer, unassigned; (-)) | 180 ms |

System: Canis familiaris
Assay: Ventricular relative Refractory period (msec) of compound was measured in chloralose anesthetized dogs (for its Class III activity in vivo) at dose of 0.1 mg/kg (iv)
Format: functional, Canis lupus familiaris, Heart
Conditions: not given

| Structure (SMILES) | Ventricular relative refractory period |
| --- | --- |
| CC[C@@H](C)N1C(=O)C(NC(=O)Cc2ccc(C(F)(F)F)cc2C(F)(F)F)N=C(C2CC2)c2ccccc21 (single isomer, unassigned; (-)) | 198 ms |

Species on record: Cavia porcellus
Assay: Inhibitory concentration against IKr current was measured in isolated guinea pig myocytes during a 0.5 s voltage clamp step from -50 to -10 mV
Format: functional
Conditions: not given

| Structure (SMILES) | IC50 |
| --- | --- |
| O=C(Cc1ccc(C(F)(F)F)cc1C(F)(F)F)N[C@@H]1N=C(c2ccccc2)c2ccccc2N(CC(F)(F)F)C1=O [L-768673] | 6000 nM |
| CN1C(=O)C(NC(=O)Cc2ccc(C(F)(F)F)cc2C(F)(F)F)N=C(C2CC2)c2ccccc21 (single isomer, unassigned; (-)) | > 1000 nM |
| CC[C@@H](C)N1C(=O)C(NC(=O)Cc2ccc(C(F)(F)F)cc2C(F)(F)F)N=C(C2CC2)c2ccccc21 (single isomer, unassigned; (+)) | > 1000 nM |
| O=C(Cc1ccc(C(F)(F)F)cc1C(F)(F)F)NC1N=C(C2CC2)c2ccccc2N(CC(F)(F)F)C1=O (single isomer, unassigned; (+)) | > 1000 nM |
| CCCN1C(=O)C(NC(=O)Cc2ccc(C(F)(F)F)cc2C(F)(F)F)N=C(C2CC2)c2ccccc21 (single isomer, unassigned; (+)) | > 1000 nM |
| CC[C@@H](C)N1C(=O)C(NC(=O)Cc2ccc(C(F)(F)F)cc2C(F)(F)F)N=C(c2ccccc2)c2ccccc21 (stereo in doubt; 15 (-)) | > 1000 nM |
| CCN1C(=O)C(NC(=O)Cc2ccc(C(F)(F)F)cc2C(F)(F)F)N=C(C2CC2)c2ccccc21 (stereo in doubt; 6 (+)) | > 1000 nM |
| CC(C)C1=NC(NC(=O)Cc2ccc(C(F)(F)F)cc2C(F)(F)F)C(=O)N(CC(F)(F)F)c2ccccc21 (configuration not stated) | > 1000 nM |
| CC[C@H](C)N1C(=O)C(NC(=O)Cc2ccc(C(F)(F)F)cc2C(F)(F)F)N=C(C2CC2)c2ccccc21 (single isomer, unassigned; (-)) | > 1000 nM |

Species on record: Cavia porcellus
Assay: Inhibitory concentration against IKs current was measured in isolated guinea pig myocytes during a 1 s voltage clamp step […]
Format: functional
Conditions: not given

| Structure (SMILES) | IC50 |
| --- | --- |
| CN1C(=O)C(NC(=O)Cc2ccc(C(F)(F)F)cc2C(F)(F)F)N=C(C2CC2)c2ccccc21 (single isomer, unassigned; (-)) | 280 nM |
| CCCN1C(=O)C(NC(=O)Cc2ccc(C(F)(F)F)cc2C(F)(F)F)N=C(C2CC2)c2ccccc21 (single isomer, unassigned; (-)) | 1.2 nM |
| CN1C(=O)C(NC(=O)Cc2ccc(C(F)(F)F)cc2C(F)(F)F)N=C(C2CC2)c2ccccc21 (stereo in doubt; 4 (+)) | 38 nM |
| CCCN1C(=O)C(NC(=O)Cc2ccc(C(F)(F)F)cc2C(F)(F)F)N=C(C2CC2)c2ccccc21 (single isomer, unassigned; (+)) | 165 nM |
| CC[C@@H](C)N1C(=O)C(NC(=O)Cc2ccc(C(F)(F)F)cc2C(F)(F)F)N=C(c2ccccc2)c2ccccc21 (stereo in doubt; 15 (-)) | 44 nM |
| CC[C@@H](C)N1C(=O)C(NC(=O)Cc2ccc(C(F)(F)F)cc2C(F)(F)F)N=C(c2ccccc2)c2ccccc21 (single isomer, unassigned; (+)) | 3.7 nM |

Further lines, results first:

| IC50 | Structure (SMILES) |
| --- | --- |
| 4 nM | CCN1C(=O)C(NC(=O)Cc2ccc(C(F)(F)F)cc2C(F)(F)F)N=C(C2CC2)c2ccccc21 (single isomer, unassigned; (-)) |
| 50 nM | CC[C@@H](C)N1C(=O)C(NC(=O)Cc2ccc(C(F)(F)F)cc2C(F)(F)F)N=C(C2CC2)c2ccccc21 (single isomer, unassigned; (+)) |
| 0.08 nM | CC[C@@H](C)N1C(=O)C(NC(=O)Cc2ccc(C(F)(F)F)cc2C(F)(F)F)N=C(C2CC2)c2ccccc21 (single isomer, unassigned; (-)) |
| 200 nM | CCN1C(=O)C(NC(=O)Cc2ccc(C(F)(F)F)cc2C(F)(F)F)N=C(C2CC2)c2ccccc21 (stereo in doubt; 6 (+)) |
| 180 nM | CC[C@H](C)N1C(=O)C(NC(=O)Cc2ccc(C(F)(F)F)cc2C(F)(F)F)N=C(C2CC2)c2ccccc21 (single isomer, unassigned; (+)) |
| 0.4 nM | CC[C@H](C)N1C(=O)C(NC(=O)Cc2ccc(C(F)(F)F)cc2C(F)(F)F)N=C(C2CC2)c2ccccc21 (single isomer, unassigned; (-)) |

Same assay, conditions: Cavia porcellus

| IC50 | Structure (SMILES) |
| --- | --- |
| 1.5 nM | O=C(Cc1ccc(C(F)(F)F)cc1C(F)(F)F)NC1N=C(C2CC2)c2ccccc2N(CC(F)(F)F)C1=O (single isomer, unassigned; (+)) |
| 6 nM | CC(C)C1=NC(NC(=O)Cc2ccc(C(F)(F)F)cc2C(F)(F)F)C(=O)N(CC(F)(F)F)c2ccccc21 (configuration not stated) |

| Structure (SMILES) | IC50 |
| --- | --- |
| O=C(Cc1ccc(C(F)(F)F)cc1C(F)(F)F)N[C@@H]1N=C(c2ccccc2)c2ccccc2N(CC(F)(F)F)C1=O [L-768673] | 6 nM |

System: Canis familiaris
Assay: Ventricular relative Refractory period (msec) of compound was measured in chloralose anesthetized dogs (for its Class III activity in vivo) at dose of 0.001 mg/kg (iv)
Format: functional, Canis lupus familiaris, Heart
Conditions: not given

| Structure (SMILES) | Ventricular relative refractory period |
| --- | --- |
| CC[C@@H](C)N1C(=O)C(NC(=O)Cc2ccc(C(F)(F)F)cc2C(F)(F)F)N=C(C2CC2)c2ccccc21 (single isomer, unassigned; (-)) | 176 ms |
